Patent US11331314B2, “Amine substituted triazole derivatives and uses thereof” (Bayer Pharma Aktiengesellschaft, priority 2017, dated 2022)

How the values were obtained:
[1] = biological target: human V1a receptor (Homo sapiens, UniProt P37288); test: Cellular in vitro assay for determining vasopressin receptor activity, V1a receptor cell line (photoprotein luminescence); type: cell-based; conditions: for IC50: CHO cell line transfected with the human V1a receptor, agonist [Arg8]-vasopressin at EC50 concentration, read-out: IC50 hV1a; for ratio IC50 hV2/hV1a: selectivity ratio of the cellular IC50 values
Description: (§1) B-1. Cellular In Vitro Assay for Determining Vasopressin Receptor Activity
(§2) The identification of agonists and antagonists of the V1a and V2 vasopressin receptors from humans, rats and dogs as well as the quantification of the activity of the compounds of the invention is carried out using recombinant cell lines. These cell lines originally derive from a hamster's ovary epithelial cell (Chinese Hamster Ovary, CHO K1, ATCC: American Type Culture Collection, Manassas, Va. 20108, USA). The test cell lines constitutively express the human, rat or dog V1a or V2 receptors. In case of the Gαq-coupled V1a receptors, cells are also stably transfected with a modified form of the calcium-sensitive photoproteins aequorin (human and rat V1a) or obelin (dog V1a), which, after reconstitution with the cofactor coelenterazine, emit light when there are increases in free calcium concentrations [Rizzuto R, Simpson A W, Brini M, Pozzan T, Nature 358, 325-327 (1992); Illarionov B A, Bondar V S, Illarionova V A, Vysotski E S, Gene 153 (2), 273-274 (1995)]. The resulting vasopressin receptor cells react to stimulation of the recombinantly expressed V1a receptors by intracellular release of calcium ions, which can be quantified by the resulting photoprotein luminescence. The Gs-coupled V2 receptors are stably transfected into cell lines expressing the gene for firefly luciferase under control of a CRE-responsible promoter. Activation of V2 receptors induces the activation of the CRE-responsive promoter via cAMP increase, thereby inducing the expression of firefly luciferase. The light emitted by photoproteins of V1a cell lines as well as the light emitted by firefly luciferase of V2 cell lines corresponds to the activation or inhibition of the respective vasopressin receptor. The bioluminescence of the cell lines is detected using a suitable luminometer [Milligan G, Marshall F, Rees S, Trends in Pharmacological Sciences 17, 235-237 (1996)].
Vasopressin V1a Receptor Cell Lines:
On the day before the assay, the cells are plated out in culture medium (DMEM/F12, 2% FCS, 2 mM glutamine, 10 mM HEPES, 5 μg/ml coelenterazine) in 384-well microtiter plates and kept in a cell incubator (96% humidity, 5% v/v CO2, 37° C.). On the day of the assay, test compounds in various concentrations are placed for 10 minutes in the wells of the microtiter plate before the agonist [Arg^8]-vasopressin at EC50 concentration is added. The resulting light signal is measured immediately in a luminometer.
(§3) Table 1A below lists individual IC50 values for the compounds of the invention (including racemic mixtures as well as separated enantiomers) that were obtained from cell lines transfected with the human V1a or V2 receptor: […]

[2] = biological target: T1, human V2 receptor (Homo sapiens, UniProt P30518); test: Cellular in vitro assay for determining vasopressin receptor activity, V2 receptor cell line (CRE-luciferase); type: cell-based; conditions: CHO cell line transfected with the human V2 receptor; agonist [Arg8]-vasopressin at EC50 concentration; read-out: IC50 hV2
T1 construct: expressed in transfected cells; host or cells: CHO K1 (ATCC) expressing firefly luciferase under a CRE-responsive promoter
Description: as §1, §2
Vasopressin V2 Receptor Cell Lines:
On the day before the assay, the cells are plated out in culture medium (DMEM/F12, 2% FCS, 2 mM glutamine, 10 mM HEPES) in 384-well microtiter plates and kept in a cell incubator (96% humidity, 5% v/v CO2, 37° C.). On the day of the assay, test compounds in various concentrations and the agonist [Arg^8]-vasopressin at EC50 concentration are added together to the wells, and plates are incubated for 3 hours in a cell incubator. Upon addition of the cell lysis reagent Triton™ and the substrate luciferin, luminescence of firefly luciferase is measured in a luminometer.
as §3

Sequence of human V1a receptor (P37288 whole entry): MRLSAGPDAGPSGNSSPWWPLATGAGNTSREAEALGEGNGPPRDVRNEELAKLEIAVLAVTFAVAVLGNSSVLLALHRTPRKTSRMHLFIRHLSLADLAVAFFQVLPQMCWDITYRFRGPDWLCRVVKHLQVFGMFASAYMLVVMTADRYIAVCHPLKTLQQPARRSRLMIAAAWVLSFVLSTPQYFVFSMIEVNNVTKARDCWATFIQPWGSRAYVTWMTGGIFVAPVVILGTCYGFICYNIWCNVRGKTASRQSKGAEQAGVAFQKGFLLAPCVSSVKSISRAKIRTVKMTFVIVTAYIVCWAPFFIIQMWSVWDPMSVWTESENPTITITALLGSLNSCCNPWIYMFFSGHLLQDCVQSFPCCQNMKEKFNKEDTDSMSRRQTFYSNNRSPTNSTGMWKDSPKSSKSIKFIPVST
T1 sequence (P30518 whole entry): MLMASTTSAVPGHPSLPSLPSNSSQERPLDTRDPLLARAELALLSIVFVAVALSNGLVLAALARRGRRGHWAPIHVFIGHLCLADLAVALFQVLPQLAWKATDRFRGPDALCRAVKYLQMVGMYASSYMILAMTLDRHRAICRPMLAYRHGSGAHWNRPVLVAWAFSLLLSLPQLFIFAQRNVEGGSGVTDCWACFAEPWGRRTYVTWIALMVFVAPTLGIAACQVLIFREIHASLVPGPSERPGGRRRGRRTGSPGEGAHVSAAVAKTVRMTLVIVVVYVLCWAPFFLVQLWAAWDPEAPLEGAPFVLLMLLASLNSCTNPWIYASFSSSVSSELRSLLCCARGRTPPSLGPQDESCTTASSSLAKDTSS

Compound	IC50 [1]	ratio IC50 hV2/hV1a [1]	IC50 [2]
O=c1n(Cc2nc(N3CCC(O)(C(F)(F)F)C3)n(-c3ccccc3Cl)n2)nc(-c2ccc(Cl)cc2)n1C[C@H](O)C(F)(F)F (single isomer, unassigned) [Example 14]	0.96 nM	6.1	5.85 nM
O=c1n(Cc2nc(N3CCC(O)(C(F)(F)F)C3)n(-c3ccccc3Cl)n2)nc(-c2ccc(Cl)cc2)n1C[C@H](O)C(F)(F)F (single isomer, unassigned) [Example 15]	3.4 nM	3.4	11.4 nM
O=C1NCCC1Nc1nc(Cn2nc(-c3ccc(Cl)cc3)n(C[C@H](O)C(F)(F)F)c2=O)nn1-c1ccccc1Cl (single isomer, unassigned) [Example 17]	0.5 nM	3.8	1.9 nM
O=C1NCCC1Nc1nc(Cn2nc(-c3ccc(Cl)cc3)n(C[C@H](O)C(F)(F)F)c2=O)nn1-c1ccccc1Cl (single isomer, unassigned) [Example 18]	0.81 nM	1.7	1.35 nM
CC1(O)CCN(c2nc(Cn3nc(-c4ccc(Cl)cc4)n(C[C@H](O)C(F)(F)F)c3=O)nn2-c2ccccc2Cl)C1 (single isomer, unassigned) [Example 30]	0.38 nM	7.2	2.7 nM
CC1(O)CCN(c2nc(Cn3nc(-c4ccc(Cl)cc4)n(C[C@H](O)C(F)(F)F)c3=O)nn2-c2ccccc2Cl)C1 (single isomer, unassigned) [Example 31]	1.08 nM	7.7	8.35 nM
O=C1CCC(Nc2nc(Cn3nc(-c4ccc(Cl)cc4)n(C[C@H](O)C(F)(F)F)c3=O)nn2-c2ccccc2Cl)CN1 (single isomer, unassigned) [Example 61]	1.35 nM	7.4	10.1 nM
O=C1CCC(Nc2nc(Cn3nc(-c4ccc(Cl)cc4)n(C[C@H](O)C(F)(F)F)c3=O)nn2-c2ccccc2Cl)CN1 (single isomer, unassigned) [Example 62]	1.3 nM	7.3	9.45 nM
O=C1CCC(CNc2nc(Cn3nc(-c4ccc(Cl)cc4)n(C[C@H](O)C(F)(F)F)c3=O)nn2-c2ccccc2Cl)N1 (single isomer, unassigned) [Example 64]	0.8 nM	5.5	4.35 nM
O=C1CCC(CNc2nc(Cn3nc(-c4ccc(Cl)cc4)n(C[C@H](O)C(F)(F)F)c3=O)nn2-c2ccccc2Cl)N1 (single isomer, unassigned) [Example 65]	0.63 nM	10.2	6.45 nM
O=c1n(Cc2nc(N3CCNC(C(F)(F)F)C3)n(-c3ccccc3Cl)n2)nc(-c2ccc(Cl)cc2)n1C[C@H](O)C(F)(F)F (single isomer, unassigned) [Example 67]	1.16 nM	19.0	22 nM
O=c1n(Cc2nc(N3CCNC(C(F)(F)F)C3)n(-c3ccccc3Cl)n2)nc(-c2ccc(Cl)cc2)n1C[C@H](O)C(F)(F)F (single isomer, unassigned) [Example 68]	0.45 nM	30.3	13.5 nM
O=c1n(Cc2nc(N3CCOC(C(F)(F)F)C3)n(CCC(F)(F)F)n2)nc(-c2ccc(Cl)cc2)n1C[C@H](O)C(F)(F)F (single isomer, unassigned) [Example 104]	30.5 nM	12.0	365 nM
O=c1n(Cc2nc(N3CCOC(C(F)(F)F)C3)n(CCC(F)(F)F)n2)nc(-c2ccc(Cl)cc2)n1C[C@H](O)C(F)(F)F (single isomer, unassigned) [Example 105]	22 nM	8.2	180 nM
O=c1n(Cc2nc(N3CCNC(C(F)(F)F)C3)n(CCC(F)(F)F)n2)nc(-c2ccc(Cl)cc2)n1C[C@H](O)C(F)(F)F (single isomer, unassigned) [Example 107]	43.5 nM	18.1	785 nM
O=c1n(Cc2nc(N3CCNC(C(F)(F)F)C3)n(CCC(F)(F)F)n2)nc(-c2ccc(Cl)cc2)n1C[C@H](O)C(F)(F)F (single isomer, unassigned) [Example 108]	10.7 nM	7.9	84 nM
CC(C)(C)CNc1nc(Cn2nc(-c3ccc(Cl)cc3)n(C[C@H](O)C(F)(F)F)c2=O)nn1-c1ccccc1Cl [Example 1, 5-(4-Chlorophenyl)-2-({1-(2-chlorophenyl)-5-[(2,2-dimethylpropyl)amino]-1H-1,2,4-triazol-3-yl}methyl)-4-[(2S)-3,3,3-trifluoro-2-hydroxypropyl]-2,4-dihydro-3H-1,2,4-triazol-3-one]	0.75 nM	2.5	1.85 nM
CS(=O)(=O)C1CN(c2nc(Cn3nc(-c4ccc(Cl)cc4)n(C[C@H](O)C(F)(F)F)c3=O)nn2-c2ccccc2Cl)C1 [Example 2, 5-(4-Chlorophenyl)-2-({1-(2-chlorophenyl)-5-[3-(methylsulfonyl)azetidin-1-yl]-1H-1,2,4-triazol-3-yl}methyl)-4-[(2S)-3,3,3-trifluoro-2-hydroxypropyl]-2,4-dihydro-3H-1,2,4-triazol-3-one]	0.43 nM	1.9	0.84 nM
CC(C)(CF)CNc1nc(Cn2nc(-c3ccc(Cl)cc3)n(C[C@H](O)C(F)(F)F)c2=O)nn1-c1ccccc1Cl [Example 3, 5-(4-Chlorophenyl)-2-({1-(2-chlorophenyl)-5-[(3-fluoro-2,2-dimethylpropyl)amino]-1H-1,2,4-triazol-3-yl}methyl)-4-[(2S)-3,3,3-trifluoro-2-hydroxypropyl]-2,4-dihydro-3H-1,2,4-triazol-3-one]	0.62 nM	3.5	2.15 nM
COC(C)(C)CNc1nc(Cn2nc(-c3ccc(Cl)cc3)n(C[C@H](O)C(F)(F)F)c2=O)nn1-c1ccccc1Cl [Example 4, 5-(4-Chlorophenyl)-2-({1-(2-chlorophenyl)-5-[(2-methoxy-2-methylpropyl)amino]-1H-1,2,4-triazol-3-yl}methyl)-4-[(2S)-3,3,3-trifluoro-2-hydroxypropyl]-2,4-dihydro-3H-1,2,4-triazol-3-one]	2.3 nM	2.1	4.77 nM
CC(C)(CNc1nc(Cn2nc(-c3ccc(Cl)cc3)n(C[C@H](O)C(F)(F)F)c2=O)nn1-c1ccccc1Cl)C(N)=O [Example 5, 3-{[1-(2-Chlorophenyl)-3-({3-(4-chlorophenyl)-5-oxo-4-[(2S)-3,3,3-trifluoro-2-hydroxypropyl]-4,5-dihydro-1H-1,2,4-triazol-1-yl}methyl)-1H-1,2,4-triazol-5-yl]amino}-2,2-dimethylpropanamide]	0.64 nM	6.0	3.8 nM
NC(=O)[C@@H]1CC(F)(F)CN1c1nc(Cn2nc(-c3ccc(Cl)cc3)n(C[C@H](O)C(F)(F)F)c2=O)nn1-c1ccccc1Cl [Example 9, 1-[1-(2-Chlorophenyl)-3-({3-(4-chlorophenyl)-5-oxo-4-[(2S)-3,3,3-trifluoro-2-hydroxypropyl]-4,5-dihydro-1H-1,2,4-triazol-1-yl}methyl)-1H-1,2,4-triazol-5-yl]-4,4-difluoro-L-prolinamide]	0.89 nM	18.8	16.7 nM
NC(=O)[C@H]1CC(F)(F)CN1c1nc(Cn2nc(-c3ccc(Cl)cc3)n(C[C@H](O)C(F)(F)F)c2=O)nn1-c1ccccc1Cl [Example 10, 1-[1-(2-Chlorophenyl)-3-({3-(4-chlorophenyl)-5-oxo-4-[(2S)-3,3,3-trifluoro-2-hydroxypropyl]-4,5-dihydro-1H-1,2,4-triazol-1-yl}methyl)-1H-1,2,4-triazol-5-yl]-4,4-difluoro-D-prolinamide]	0.63 nM	29.2	18.2 nM
